Laboratory results as given in article PMC9311539, “Antibacterial Activity against Clinical Isolates and In Vivo Efficacy of Coralmycins” (Antibiotics, 2022).
In brackets after ≈: the same amount, converted by molar mass. Entries after “also recorded” stand apart in the source; their conditions may differ. Where two headings read alike, the source gives them in different places.

What was measured:
[1] = system: S. pneumoniae; assay: MIC, broth microdilution, clinical isolates: S. pneumoniae; format: cell-based, Streptococcus pneumoniae; settings: for MIC50: read-out: MIC50
Experimental: (§1) To assess the MICs for antibiotic susceptibility, Gram-positive bacteria isolated from human clinical specimens were obtained from several general hospitals in Seoul, Korea, during 2002–2018. Staphylococcus aureus Giorgio and Streptococcus pneumoniae ATCC49619 were used to test in vivo efficacies against […], in mice.
(§2) The MICs of the antimicrobial agents were determined by a twofold microdilution broth method, as described by the Clinical and Laboratory Standards Institute. Briefly, test organisms were grown on Mueller–Hinton agar (MHA, BD Difco, Sparks, MD, USA) plates, subcultured into cation-adjusted Mueller–Hinton broth (CAMHB, BD Difco, Sparks, MD, USA), and incubated for 18 h at 35 °C. For S. pneumoniae culture, 5% sheep blood (Hanil Comed, Seongnam, Korea) was added. The cultured bacteria were diluted using phosphate-buffered saline (PBS) to achieve a bacterial cell density of approximately 5 × 10^6 CFU/mL. All test organisms were loaded into 96-well plates containing serial dilutions of the antimicrobial agents to achieve a concentration of 5 × 10^4 CFU/well. The plates were incubated at 35 °C for 18–20 h and examined for bacterial growth.

[2] = system: S. aureus Giorgio; assay: Neutropenic mouse thigh infection model; format: in vivo, female ICR mice
Experimental: (§3) For the respiratory tract infection model, neutropenic mice were anesthetized and intranasally inoculated with a 50 μL suspension of S. pneumoniae ATCC49619 (4.4 × 10^8 CFU/mL). For the thigh infection model, the neutropenic mice were administered an intramuscular injection of a 100 μL suspension of S. aureus Giorgio (1 × 10^6 CFU/mL) into both thighs. For both models, four mice were included in each group. At 2 h after infection, two mice were sacrificed, and the infected thighs or lungs (n = 4) were excised to determine the initial bacterial levels. […] At 24 h after infection, the mice were sacrificed by cervical dislocation; their thighs or lungs were removed, homogenized, serially diluted with saline, and plated onto MHA to count the number of bacteria remaining. The number of viable bacterial cells (CFU) in the thighs or lungs of vehicle- and drug-treated mice was determined.

[3] = system: Vancomycin-sensitive E. faecium; assay: MIC, broth microdilution, clinical isolates: vancomycin-sensitive E. faecium; format: cell-based, Enterococcus faecium; settings: for MIC50: read-out: MIC50
Experimental: as §1, §2

[4] = system: S. pneumoniae ATCC49619; assay: Neutropenic mouse respiratory tract infection model; format: in vivo, female ICR mice
Experimental: as §3

[5] = system: S. pneumoniae ATCC49619; assay: Time-kill assay, S. pneumoniae ATCC49619; format: cell-based, Streptococcus pneumoniae
Experimental: (§4) Time-kill analysis was performed by the NCCLS M26-A method. The test organisms (S. aureus Giorgio, S. pneumoniae ATCC49619, MRSA CCARM 3167, and VRE 3) incubated in CAMHB for 18 h at 35 °C were diluted to 10^5 CFU/mL with fresh CAMHB, and the diluted cultures were preincubated for 2 h. For S. pneumoniae culture, 5% sheep blood (Hanil Comed, Seongnam, Korea) was added. […] Culture aliquots (0.1 mL) were removed after 0, 2, 4, 6 and 24 h of incubation, and serial 10-fold dilutions were prepared in saline as needed. The numbers of viable cells were determined on drug-free MHA plates after 20 h of incubation. A compound was considered bactericidal if the original inoculum was reduced by 3 log CFU/mL (99.9%) at each concentration or was considered bacteriostatic if the inoculum was reduced by 0–3 log CFU/mL.

[6] = system: VRE 3; assay: Time-kill assay, VRE 3; format: cell-based, vancomycin-resistant Enterococcus
Experimental: as §4

[7] = system: Vancomycin-sensitive E. faecalis; assay: MIC, broth microdilution, clinical isolates: vancomycin-sensitive E. faecalis; format: cell-based, Enterococcus faecalis; settings: for MIC50: read-out: MIC50
Experimental: as §1, §2

[8] = system: MRSA; assay: MIC, broth microdilution, clinical isolates: MRSA; format: cell-based, Staphylococcus aureus; settings: for MIC50: read-out: MIC50
Experimental: as §1, §2

[9] = system: S. pneumoniae ATCC49619; assay: MIC against S. pneumoniae ATCC49619; format: cell-based; settings: Streptococcus pneumoniae, read-out: MIC
Experimental: as §2

[10] = system: S. aureus Giorgio; assay: MIC against S. aureus Giorgio; format: cell-based, Staphylococcus aureus
Experimental: as §2

[11] = system: MSSA; assay: MIC, broth microdilution, clinical isolates: MSSA; format: cell-based; settings: Staphylococcus aureus, 26 clinical isolates; for MIC50: read-out: MIC50; for MIC90: read-out: MIC90
Experimental: as §1, §2

[12] = system: S. aureus Giorgio; assay: Time-kill assay, S. aureus Giorgio; format: cell-based, Staphylococcus aureus
Experimental: as §4

[13] = system: VRE 3; assay: MIC against VRE 3; format: cell-based, vancomycin-resistant Enterococcus; settings: Enterococcus, read-out: MIC
Experimental: as §2

[14] = system: CNS (coagulase-negative staphylococci); assay: MIC, broth microdilution, clinical isolates: CNS; format: cell-based; settings: for MIC50: read-out: MIC50
Experimental: as §1, §2

[15] = system: MRSA CCARM 3167; assay: MIC against MRSA CCARM 3167; format: cell-based; settings: Staphylococcus aureus; read-out: MIC
Experimental: as §2

[16] = system: VRE; assay: MIC, broth microdilution, clinical isolates: VRE; format: cell-based, vancomycin-resistant Enterococcus; settings: for MIC50: VRE, read-out: MIC50
Experimental: as §1, §2

[17] = system: MRSA CCARM 3167; assay: Time-kill assay, MRSA CCARM 3167; format: cell-based, Staphylococcus aureus
Experimental: as §4

[18] = cited from earlier work
[19] = Streptococcus pneumoniae, 27 S. pneumoniae isolates, read-out: MIC90
[20] = Streptococcus pneumoniae, 27 clinical isolates
[21] = Enterococcus faecium, 32 clinical isolates
[22] = second trial, s.c. 100 mg/kg bid
[23] = Enterococcus faecalis, 32 clinical isolates
[24] = Staphylococcus aureus, MRSA, 42 clinical isolates
[25] = Staphylococcus aureus, read-out: MIC
[26] = Enterococcus, 46 clinical isolates
[27] = Enterococcus, 46 VRE isolates, read-out: MIC90

Compound: CO[C@@H](C(N)=O)[C@H](NC(=O)c1ccc(NC(=O)c2ccc([N+](=O)[O-])cc2)cc1)C(=O)Nc1ccc(C(=O)Nc2ccc(C(=O)Nc3ccc(C(=O)O)c(O)c3OC(C)C)c(O)c2OC(C)C)cc1 [Coralmycin A, coralmycin A]
- MIC90 ([1]; 27 clinical isolates): 1 µg/mL (≈ 1.07 µM)
- MIC90 [1, 19]: 1 µg/mL (≈ 1.07 µM)
- MIC50 [1, 20]: 0.25 µg/mL (≈ 0.267 µM)
- antibacterial effect in thigh infection model ([2]; 20 mg/kg bid): almost no antibacterial effect
- antibacterial effect in thigh infection model ([2]; s.c. 4 and 20 mg/kg at 3 and 6 h after infection): almost no antibacterial effect
- MIC90 ([3]; 32 clinical isolates): 0.5 µg/mL (≈ 0.534 µM)
- MIC50 [3, 21]: 0.25 µg/mL (≈ 0.267 µM)
- MIC90 ([3]; vancomycin-sensitive Enterococcus faecium, read-out: MIC90): 0.5 µg/mL (≈ 0.534 µM)
- in vivo effect (bacteriostatic or bactericidal) ([4]; 4 mg/kg bid s.c.): bacteriostatic effects; also recorded: static effect
- in vivo effect (bacteriostatic or bactericidal) ([4]; 20 mg/kg bid s.c.): bacteriostatic effects; also recorded: static effect
- in vivo effect (bacteriostatic or bactericidal) ([4]; 100 mg/kg bid s.c.): significant bactericidal effects
- reduction of bacterial burden in the lungs compared to the 24-h control group ([4]; first experiment, s.c. 4 mg/kg bid): 1.43 log10 CFU
- reduction of bacterial burden in the lungs compared to the 24-h control group ([4]; first experiment, s.c. 20 mg/kg bid): 1.81 log10 CFU
- antibacterial effect in respiratory tract infection model ([4]; first experiment, s.c. 4 and 20 mg/kg at 3 and 6 h after infection): significant antibacterial effects
- reduction of bacterial burden in the lungs compared to the 24-h control group ([4]; second trial, s.c. 4 mg/kg bid): 1.45 log10 CFU
- reduction of bacterial burden in the lungs compared to the 24-h control group ([4]; second trial, s.c. 20 mg/kg bid): 1.88 log10 CFU
- reduction of bacterial burden in the lungs compared to the 24-h control group [4, 22]: 3.02 log10 CFU
- reduction of the starting bacterial burden compared to the 2-h control group [4, 22]: 1.34 log10 CFU/lung
- time-kill activity ([5]; 0.5× MIC (Figure S4)): bacteriostatic (considered bacteriostatic if the inoculum was reduced by 0–3 log CFU/mL)
- time-kill activity ([5]; 1× MIC): bactericidal (considered bactericidal if the original inoculum was reduced by 3 log CFU/mL (99.9%) at each concentration)
- time-kill activity ([5]; 2× and 4× MIC, 24 h): bactericidal (considered bactericidal if the original inoculum was reduced by 3 log CFU/mL (99.9%) at each concentration)
- time-kill activity ([6]; 1× MIC): bactericidal (considered bactericidal if the original inoculum was reduced by 3 log CFU/mL (99.9%) at each concentration)
- time-kill activity ([6]; 2× and 4× MIC, 24 h): bactericidal (considered bactericidal if the original inoculum was reduced by 3 log CFU/mL (99.9%) at each concentration)
- MIC90 ([7]; 32 clinical isolates): 2 µg/mL (≈ 2.14 µM)
- MIC50 [7, 23]: 1 µg/mL (≈ 1.07 µM)
- MIC90 ([7]; vancomycin-sensitive Enterococcus faecalis, read-out: MIC90): 2 µg/mL (≈ 2.14 µM)
- MIC90 ([8]; 42 clinical isolates): 1 µg/mL (≈ 1.07 µM)
- MIC50 [8, 24]: 1 µg/mL (≈ 1.07 µM)
- MIC90 ([8]; Staphylococcus aureus, 42 MRSA isolates, read-out: MIC90): 1 µg/mL (≈ 1.07 µM)
- MIC ([9]; ATCC 25922 / ATCC 49619, printed as S. pneumoniae ATCC 25922): 10 µg/mL (≈ 10.7 µM)
- MIC [10]: 0.003 µg/mL (≈ 0.00321 µM)
- MIC [10, 25]: 0.006 µg/mL (≈ 0.00641 µM)
- MIC50 [11]: 0.5 µg/mL (≈ 0.534 µM)
- MIC90 [11]: 1 µg/mL (≈ 1.07 µM)
- time-kill activity ([12]; 0.5× MIC (Figure S4)): bacteriostatic (considered bacteriostatic if the inoculum was reduced by 0–3 log CFU/mL)
- time-kill activity ([12]; 1× MIC): bactericidal (considered bactericidal if the original inoculum was reduced by 3 log CFU/mL (99.9%) at each concentration)
- time-kill activity ([12]; 2× and 4× MIC, 24 h): bactericidal (considered bactericidal if the original inoculum was reduced by 3 log CFU/mL (99.9%) at each concentration)
- MIC [13]: 0.5 µg/mL (≈ 0.534 µM)
- MIC90 ([14]; 31 clinical isolates): 1 µg/mL (≈ 1.07 µM)
- MIC50 ([14]; 31 clinical isolates): 0.25 µg/mL (≈ 0.267 µM)
- MIC90 ([14]; 31 coagulase-negative staphylococci isolates, read-out: MIC90): 1 µg/mL (≈ 1.07 µM)
- MIC [15]: 0.01 µg/mL (≈ 0.0107 µM)
- MIC90 ([16]; 46 clinical isolates): 1 µg/mL (≈ 1.07 µM)
- MIC50 [16, 26]: 0.5 µg/mL (≈ 0.534 µM)
- MIC90 [16, 27]: 1 µg/mL (≈ 1.07 µM)
- time-kill activity ([17]; 1× MIC): bactericidal (considered bactericidal if the original inoculum was reduced by 3 log CFU/mL (99.9%) at each concentration)
- time-kill activity ([17]; 2× and 4× MIC, 24 h): bactericidal (considered bactericidal if the original inoculum was reduced by 3 log CFU/mL (99.9%) at each concentration)

Compound: CC(=O)NC[C@H]1CN(c2ccc(N3CCOCC3)c(F)c2)C(=O)O1 [Linezolid]
- MIC90 ([1]; 27 clinical isolates): 4 µg/mL (≈ 11.9 µM)
- MIC90 [1, 19]: 4 µg/mL (≈ 11.9 µM)
- MIC50 [1, 20]: 2 µg/mL (≈ 5.93 µM)
- MIC50 [3, 21]: 2 µg/mL (≈ 5.93 µM)
- MIC90 ([3]; Enterococcus faecium, 32 clinical isolates, read-out: MIC90): 4 µg/mL (≈ 11.9 µM)
- in vivo effect (bacteriostatic or bactericidal) ([4]; 4 mg/kg bid s.c.): bacteriostatic
- in vivo effect (bacteriostatic or bactericidal) ([4]; 20 mg/kg bid s.c.): bactericidal
- reduction of the starting bacterial burden compared to the 2-h control group ([4]; second trial, 20 mg/kg bid): 0.75 log10 CFU/lung
- time-kill activity ([5]; 2× and 4× MIC, 24 h): bacteriostatic (considered bacteriostatic if the inoculum was reduced by 0–3 log CFU/mL)
- time-kill activity ([6]; 2× and 4× MIC, 24 h): bacteriostatic (considered bacteriostatic if the inoculum was reduced by 0–3 log CFU/mL)
- MIC50 [7, 23]: 2 µg/mL (≈ 5.93 µM)
- MIC90 ([7]; Enterococcus faecalis, 32 clinical isolates, read-out: MIC90): 4 µg/mL (≈ 11.9 µM)
- MIC50 [8, 24]: 2 µg/mL (≈ 5.93 µM)
- MIC90 ([8]; Staphylococcus aureus, MRSA, 42 clinical isolates, read-out: MIC90): 4 µg/mL (≈ 11.9 µM)
- MIC ([9]; ATCC49619): 2 µg/mL (≈ 5.93 µM)
- MIC [10, 25]: 2 µg/mL (≈ 5.93 µM)
- MIC50 [11]: 2 µg/mL (≈ 5.93 µM)
- MIC90 [11]: 2 µg/mL (≈ 5.93 µM)
- bound to plasma proteins [18]: 18%
- time-kill activity ([12]; 2× and 4× MIC, 24 h): bacteriostatic (considered bacteriostatic if the inoculum was reduced by 0–3 log CFU/mL)
- MIC [13]: 2 µg/mL (≈ 5.93 µM)
- MIC50 ([14]; 31 clinical isolates): 2 µg/mL (≈ 5.93 µM)
- MIC90 ([14]; 31 clinical isolates, read-out: MIC90): 4 µg/mL (≈ 11.9 µM)
- MIC [15]: 1 µg/mL (≈ 2.96 µM)
- MIC90 ([16]; 46 clinical isolates): 4 µg/mL (≈ 11.9 µM)
- MIC50 [16, 26]: 2 µg/mL (≈ 5.93 µM)
- MIC90 [16, 27]: 4 µg/mL (≈ 11.9 µM)
- time-kill activity ([17]; 2× and 4× MIC, 24 h): bacteriostatic (considered bacteriostatic if the inoculum was reduced by 0–3 log CFU/mL)
